Experimental findings from patent US20220273732A1, “PROBIOTIC THERAPIES FOR SOCIAL DEFICIT AND STRESS RESPONSE” (California Institute of Technology, priority 2021, published 2022) are described below.

“Also recorded” adds a separate entry of the source. No end group written: not given here.

In assay [1] the test system is mice. Nature of the assay: Reciprocal social interaction (RSI) test, social activity. The class given is in vivo. The following applies: for social activity of ABX adrenalectomized mice: under drug treatment, compared to ABX sham and vehicle sham mice.
A further assay has as its system c-Fos. Nature of the assay: c-Fos staining of brain sections after social interaction. The class given is in vivo. The conditions noted are these: ABX hM4Di mice, CNO.
The test system of a further assay is corticosterone. Nature of the assay: Serum corticosterone measurement (Corticosterone EIA Kit). It counts as in vivo, mice. The following applies: for serum corticosterone: CNO i.p.; for serum corticosterone levels: GF mice, 50 mg/kg i.p., vs CMC vehicle, 50 mg/kg.
The test system of assay [2] is mice. Nature of the assay: Non-social activity (self-grooming, digging, rearing) in the RSI paradigm. It counts as in vivo. The text has this: Minimal aggressive behaviors were observed. Each novel mouse was used for testing up to two times per day. Subject mice undergoing repeated testing throughout the experiment were confronted with a novel mouse each time. The following social investigation behaviors constituted “social activity” and were scored as such: anogenital sniffing, nose-nose sniffing, active approach, and push under/crawl. The following solitary behaviors during social interaction constituted “non-social activity” and were scored as such: self-grooming, digging, and rearing. All behaviors were analyzed using of ETHOM software (Shih, 2000).
Novel cage behavior is a widely-used test for measuring the non-social activity in a novel environment. The subject mouse was placed in an unused, sterilized cage. Non-social activity was video recorded for 5 minutes. The following solitary behaviors during social interaction constituted “non-social activity” and were scored as such: self-grooming, digging, and rearing. All behaviors were analyzed using of ETHOM software (Shih, 2000).

Description for c-Fos: All brain samples for c-Fos expression were collected one hour after the reciprocal social interaction test. Mice were anesthetized by intraperitoneal injection with a mixture of 100 mg/kg ketamine and 10 mg/kg xylazine. The mice were then perfused via the cardiovascular system with PBS followed by 4% paraformaldehyde (Electron Microscopy Sciences). Brains were removed and post-fixed in 4% paraformaldehyde 3-5 days at 4° C. The brains were kept in PBS with 0.02% sodium azide at 4° C. until sectioning.
The brains were embedded in 4% UltraPure low melting point agarose (ThermoFisher) and were coronally sectioned by vibratome (VT1000S; Leica) at a thickness of 50 μm, with the exception of the brain sections for FIGS. 1D-1F that were sectioned at a thickness of 100 μm. Brain sections of 50 μm were collected and stained every 0.15 mm. Brain sections of 100 μm were collected sequentially and stained entirely. The brain sections were stored as free-floating in PBS with 0.02% sodium azide at 4° C. until staining. […] The next day, sections were incubated with fluorescence-conjugated secondary antibody for 1.5-2 hours at room temperature. […] The fluorescence-conjugated secondary antibodies were donkey anti-goat (1:1000), donkey anti-rabbit (1:1000), and donkey anti-mouse (1:1000) (ThermoFisher Scientific). […]
Description for corticosterone: Whole blood was collected either by cardiac puncture or retro-orbital bleeding, and placed into Micro tube Z gel (41.1378.005; Sarstedt). Serum was separated by centrifuge at 10,000×g for five minutes, and stored at −80° C. until use. Corticosterone levels were detected by the Corticosterone EIA Kit (K014-H5; Arbor Assays) using the manufacturer's protocol. Due to the nature of the circadian rhythm for the corticosterone, the blood sample was collected during 1:00-5:00 pm on each day of experiment.

For `CC#C[C@]1(O)CC[C@H]2[C@@H]3CCC4=CC(=O)CCC4=C3[C@@H](c3ccc(N(C)C)cc3)C[C@@]21C` [RU-486, mifepristone], in the assay with mice [1] (ABX control mice vs ABX Nr3cl^ΔDG or Nr3cl^ΔBNST mice, 40 mg/kg i.p.), the social activity entry is recorded as “enhanced social activity only in ABX control mice”. Moreover, the “social activity of ABX adrenalectomized mice” value with mice [1] is reported as “elevated”.

For the molecule `C[N+]1([O-])CCN(C2=Nc3cc(Cl)ccc3Nc3ccccc32)CC1` [CNO, clozapine N-oxide], the “c-Fos expression in the BNST or DG” value in the assay on c-Fos was “did not alter”. In the assay on c-Fos, the “c-Fos staining in the PVN” value is recorded as “decreased”. Further, the social behavior result was “dramatically increased” in the assay on mice [1] (ABX Crh-ires-Cre mice with hM4Di in PVN, CNO i.p. 2-3 mg/kg); “no change” with mice [1] (ABX mice receiving control virus (mCherry) in PVN, CNO i.p.); “significantly decreased” with mice [1] (SPF hM3Dq mice (PVN), CNO i.p.). For the same molecule, the serum corticosterone entry is “decreased; also recorded: reduction” in the assay on corticosterone (ABX hM4Di mice (PVN), after social interaction) and “increased” with corticosterone (SPF hM3Dq mice (PVN)). For the same molecule, in the assay with mice [2] (SPF hM3Dq mice, chemogenetic activation of PVN CRH neurons), the non-social activity result is recorded as “increased”.

Take `CC(C)(C(=O)c1cccnc1)c1cccnc1` [metyrapone]: the social activity entry in the assay with mice [1] (GF mice, 50 mg/kg i.p., 40 min before test, vs CMC vehicle) is on record as “significantly increased”. Further, the “social activity of ABX sham mice compared to vehicle sham mice” value with mice [1] (during drug treatment i.p. (RU-486 40 mg/kg, MET 50 mg/kg)) is on record as “increased”. For the same molecule, the “social activity of ABX adrenalectomized mice” value in the assay on mice [1] was “elevated”. The serum corticosterone levels result in the assay with corticosterone (after social interaction) is recorded as “effectively reduced”; with corticosterone (after social interaction, listed as MET), “reduction”.

Take `C[C@]12C[C@H](O)[C@H]3[C@@H](CCC4=CC(=O)CC[C@@]43C)[C@@H]1CC[C@@H]2C(=O)CO` [corticosterone]: in the assay on mice [1] (acute injection, 10 mg/kg i.p. on two consecutive days, all groups (vehicle sham, ABX sham, ABX ADX)), the social behavior entry is “impaired”. Besides, the social activity entry in the assay on mice [1] (injection into the DG and BNST of SPF mice (corticosterone 65 μM, dexamethasone 20 mM)) is recorded as “decreased”.

Regarding “CRF: synthetic corticotropin-releasing factor (SEEPPISLDLTFHLLREVLEMARAEQLAQQAHSNRKLMEII; ends and bridges not checked; UniProt P06850 154-194, looked up)”, in the assay on mice [1] (injection into the PVN of SPF mice (210 μM or 42 μM, 450 nL per hemisphere)), the “social activity toward a novel mouse” value is “dramatically reduced”. Moreover, the values for the non-social activity result in the assay on mice [2] (high levels of CRF into PVN of SPF mice) and in the assay with mice [2] (low levels of CRF into PVN of SPF mice) were “reversed these changes” and “increased”, respectively.
